Measured values published in PubChem BioAssay AID248 (DTP/NCI, 2004).
Where “and” joins values, the source holds several entries; their conditions need not be identical. Identical values can stand only once. Toxic doses and inconclusive results are not listed. Rule as the data show it: active = T/C of 150% or more; inactive = T/C below 125%.

Test system: L1210 leukemia ip in BDF1 mice, survival T/C
Test: NCI In Vivo Anticancer Drug Screen. Data for tumor model L1210 Leukemia (intraperitoneal) in B6D2F1 (BDF1) mice
Conditions: endpoint: mean survival time, higher = longer survival
Outline: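 Survival endpoint. Drug-treated group vs vehicle group, expressed as T divided by C. Tumor passaged by transplantation.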

[1] = dose: 100.0 mg/kg/injection, schedule: Q01DX009 (ip), vehicle: saline with Tween-80
[2] = dose: 100.0 mg/kg/injection, schedule: Q04DX003 (ip), vehicle: saline with Tween-80
[3] = dose: 200.0 mg/kg/injection, schedule: Q01DX009 (ip), vehicle: saline with Tween-80
[4] = dose: 200.0 mg/kg/injection, schedule: Q04DX003 (ip), vehicle: saline with Tween-80
[5] = dose: 400.0 mg/kg/injection, schedule: Q04DX003 (ip), vehicle: saline with Tween-80
[6] = dose: 100.0 mg/kg/injection, schedule: Q01DX009 (ip), vehicle: saline
[7] = dose: 100.0 mg/kg/injection, schedule: Q04DX003 (ip), vehicle: saline
[8] = dose: 200.0 mg/kg/injection, schedule: Q04DX003 (ip), vehicle: saline
[9] = dose: 400.0 mg/kg/injection, schedule: Q04DX003 (ip), vehicle: saline
[10] = dose: 100.0 mg/kg/injection, schedule: Q01DX001 (ip), vehicle: carboxymethylcellulose (CMC)
[11] = dose: 200.0 mg/kg/injection, schedule: Q01DX001 (ip), vehicle: carboxymethylcellulose (CMC)
[12] = dose: 400.0 mg/kg/injection, schedule: Q01DX001 (ip), vehicle: carboxymethylcellulose (CMC)
[13] = dose: 100.0 mg/kg/injection, schedule: Q01DX001 (ip), vehicle: saline
[14] = dose: 200.0 mg/kg/injection, schedule: Q01DX001 (ip), vehicle: saline
[15] = dose: 100.0 mg/kg/injection, schedule: Q01DX001 (ip), vehicle: saline with Tween-80
[16] = dose: 200.0 mg/kg/injection, schedule: Q01DX001 (ip), vehicle: saline with Tween-80
[17] = dose: 100.0 mg/kg/injection, schedule: Q04DX003 (ip), vehicle: Klucel (hydroxypropylcellulose) (HPC)
[18] = dose: 100.0 mg/kg/injection, schedule: Q04DX002 (ip), vehicle: Klucel (hydroxypropylcellulose) (HPC)
[19] = dose: 200.0 mg/kg/injection, schedule: Q04DX002 (ip), vehicle: Klucel (hydroxypropylcellulose) (HPC)
[20] = dose: 400.0 mg/kg/injection, schedule: Q04DX002 (ip), vehicle: Klucel (hydroxypropylcellulose) (HPC)

Measured: T/C

COC(CCC#N)c1ccccc1 (configuration not stated)
inactive: [1] 97 % of control | [2] 105 % of control | [3] 100 % of control | [4] 97 % of control | dose: 400.0 mg/kg/injection, schedule: Q01DX009 (ip), vehicle: saline with Tween-80 101 % of control | [5] 102 % of control

CCOC(=O)Nc1ccc(OCC)cc1
inactive: dose: 50.0 mg/kg/injection, schedule: Q01DX001 (ip), vehicle: Klucel (hydroxypropylcellulose) (HPC) 98 % of control | dose: 100.0 mg/kg/injection, schedule: Q01DX001 (ip), vehicle: Klucel (hydroxypropylcellulose) (HPC) 101 % of control | dose: 200.0 mg/kg/injection, schedule: Q01DX001 (ip), vehicle: Klucel (hydroxypropylcellulose) (HPC) 102 % of control and 106 % of control | dose: 400.0 mg/kg/injection, schedule: Q01DX001 (ip), vehicle: Klucel (hydroxypropylcellulose) (HPC) 97 % of control and 98 % of control

Cc1ncc(CO)c(Cc2ccc(N(C)C)cc2)c1O
inactive: dose: 100.0 mg/kg/injection, schedule: Q04DX002 (ip), vehicle: saline 88 % of control | dose: 200.0 mg/kg/injection, schedule: Q04DX002 (ip), vehicle: saline 103 % of control | dose: 400.0 mg/kg/injection, schedule: Q04DX002 (ip), vehicle: saline 95 % of control

CC(C)[PH+]1c2ccccc2-c2ccccc21.CC(C)[PH+]1c2ccccc2-c2ccccc21.[Cl][Pt][Cl]
inactive: dose: 12.5 mg/kg/injection, schedule: Q04DX003 (ip), vehicle: saline with Tween-80 98 % of control | dose: 25.0 mg/kg/injection, schedule: Q04DX003 (ip), vehicle: saline with Tween-80 98 % of control | dose: 50.0 mg/kg/injection, schedule: Q04DX003 (ip), vehicle: saline with Tween-80 98 % of control

CC(N)(CCCN)C(=O)O (configuration not stated)
inactive: [6] 102 % of control | [7] 104 % of control | dose: 200.0 mg/kg/injection, schedule: Q01DX009 (ip), vehicle: saline 102 % of control | [8] 102 % of control | dose: 400.0 mg/kg/injection, schedule: Q01DX009 (ip), vehicle: saline 94 % of control | [9] 101 % of control

Cc1ccc(S(=O)(=O)C(CC(=O)O)c2ccccc2)cc1 (configuration not stated)
inactive: [10] 88 % of control | [11] 93 % of control | [12] 98 % of control

O=C1CCCCC1Nc1ccc(Br)cc1 (configuration not stated)
inactive: [13] 98 % of control | [14] 98 % of control | dose: 400.0 mg/kg/injection, schedule: Q01DX001 (ip), vehicle: saline 98 % of control

O=c1cc(/C=N/O)c2cccc3c2n1CCC3
inactive: [15] 100 % of control | [16] 91 % of control | dose: 400.0 mg/kg/injection, schedule: Q01DX001 (ip), vehicle: saline with Tween-80 94 % of control

NNC(=O)C1CC2C=CCC(C2)C1 (configuration not stated)
inactive: [15] 98 % of control | [16] 92 % of control

Cc1ncc(CO)c(/C=N/OCc2ccc(OCc3ccccc3)cc2)c1O
inactive: [2] 102 % of control | [4] 100 % of control

COCOc1ccc(-c2ccc(O)cc2)cc1
inactive: [2] 91 % of control | [4] 91 % of control | [5] 94 % of control

CCCCCCCCCCCC(=O)NC(=S)Nc1ccccc1F
inactive: [17] 95 % of control | dose: 200.0 mg/kg/injection, schedule: Q04DX003 (ip), vehicle: Klucel (hydroxypropylcellulose) (HPC) 87 % of control

Cc1cccc(C)c1NCC(=O)NN
inactive: [18] 106 % of control | [19] 106 % of control | [20] 120 % of control

N#CC(c1ccccc1)c1cccc(C(=O)O)c1 (configuration not stated)
inactive: [10] 105 % of control | [11] 86 % of control | [12] 91 % of control

Cc1cc(OCCOC(=O)Nc2ccc(C)c([N+](=O)[O-])c2)ccc1Cl
inactive: dose: 50.0 mg/kg/injection, schedule: Q01DX009 (ip), vehicle: saline with Tween-80 93 % of control | [1] 87 % of control | [3] 87 % of control

COc1nc(Cl)nc(Cl)n1
inactive: dose: 6.0 mg/kg/injection, schedule: Q01DX Z (ip), vehicle: methylcellulose (MC) 89 % of control

CN=NNc1nc[nH]c1C(=O)OC
inactive: dose: 50.0 mg/kg/injection, schedule: Q01DX001 (ip), vehicle: carboxymethylcellulose (CMC) 118 % of control | [10] 118 % of control | [11] 118 % of control | [12] 113 % of control

O=[N+]([O-])c1cc(Cl)ccc1N1CCCC1
inactive: [1] 89 % of control | [3] 99 % of control

CCNC(Cc1ccccc1)c1ccc(OC)cc1 (configuration not stated)
inactive: dose: 25.0 mg/kg/injection, schedule: Q01DX009 (ip), vehicle: Klucel (hydroxypropylcellulose) (HPC) 97 % of control | dose: 25.0 mg/kg/injection, schedule: Q04DX003 (ip), vehicle: Klucel (hydroxypropylcellulose) (HPC) 110 % of control | dose: 50.0 mg/kg/injection, schedule: Q01DX009 (ip), vehicle: Klucel (hydroxypropylcellulose) (HPC) 94 % of control | dose: 50.0 mg/kg/injection, schedule: Q04DX003 (ip), vehicle: Klucel (hydroxypropylcellulose) (HPC) 102 % of control | [17] 98 % of control and 102 % of control

CNC(=O)c1ccc(/C=C/c2c[nH]c3ccccc23)[n+](C)c1
inactive: [13] 97 % of control | [14] 95 % of control

Oc1ccc(-c2cc(O)c(-c3ccc(O)cc3)cc2O)cc1
inactive: [6] 95 % of control

C=Cc1cc[n+](CCCCC[n+]2ccc(C=C)cc2)cc1
inactive: [10] 96 % of control | [11] 98 % of control | [12] 93 % of control

c1ccc(-c2coc(-c3ccccc3)c2)cc1
inactive: [18] 101 % of control | [19] 101 % of control | [20] 97 % of control

Clc1ccc(Cc2ccc(Cl)cc2)cc1
inactive: [10] 107 % of control | [11] 100 % of control | [12] 102 % of control

CCOC(=O)c1cnc(SCC)nc1N
inactive: [7] 101 % of control | [8] 98 % of control | [9] 103 % of control

C=CC(COC(C)=O)N1CC1 (configuration not stated)
inactive: dose: 1.0 mg/kg/injection, schedule: Q01DX Z (ip), vehicle: carboxymethylcellulose (CMC) 100 % of control | dose: 2.0 mg/kg/injection, schedule: Q01DX Z (ip), vehicle: carboxymethylcellulose (CMC) 92 % of control | dose: 4.0 mg/kg/injection, schedule: Q01DX Z (ip), vehicle: carboxymethylcellulose (CMC) 104 % of control | dose: 5.0 mg/kg/injection, schedule: Q01DX Z (oral), vehicle: saline 101 % of control | dose: 7.5 mg/kg/injection, schedule: Q01DX Z (ip), vehicle: saline 104 % of control | dose: 7.5 mg/kg/injection, schedule: Q01DX Z (oral), vehicle: saline 104 % of control | dose: 8.0 mg/kg/injection, schedule: Q01DX Z (ip), vehicle: carboxymethylcellulose (CMC) 101 % of control | dose: 10.0 mg/kg/injection, schedule: Q01DX Z (oral), vehicle: saline 104 % of control | dose: 12.0 mg/kg/injection, schedule: Q01DX Z (ip), vehicle: carboxymethylcellulose (CMC) 110 % of control | dose: 15.0 mg/kg/injection, schedule: Q01DX Z (ip), vehicle: saline 121 % of control | dose: 15.0 mg/kg/injection, schedule: Q01DX Z (oral), vehicle: saline 105 % of control | dose: 20.0 mg/kg/injection, schedule: Q01DX Z (oral), vehicle: saline 114 % of control | dose: 25.0 mg/kg/injection, schedule: Q01DX Z (ip), vehicle: carboxymethylcellulose (CMC) 96 % of control | dose: 30.0 mg/kg/injection, schedule: Q01DX Z (ip), vehicle: saline 97 % of control | dose: 40.0 mg/kg/injection, schedule: Q01DX Z (oral), vehicle: saline 116 % of control | dose: 60.0 mg/kg/injection, schedule: Q01DX Z (oral), vehicle: saline 100 % of control

OC1(CBr)CCCCC1
inactive: [2] 102 % of control | [4] 98 % of control | [5] 95 % of control

O=C(O)/C(=C\c1ccncc1)c1cccc2ccccc12
inactive: [2] 100 % of control | dose: 200.0 mg/kg/injection, schedule: Q01DX009 (ip), vehicle: Klucel (hydroxypropylcellulose) (HPC) 105 % of control | [4] 98 % of control | dose: 400.0 mg/kg/injection, schedule: Q01DX009 (ip), vehicle: Klucel (hydroxypropylcellulose) (HPC) 102 % of control | [5] 91 % of control

COC(=O)C1CC(O)CC(C(=O)OC)O1 (configuration not stated)
inactive: dose: 75.0 mg/kg/injection, schedule: Q01DX001 (ip), vehicle: saline 109 % of control | dose: 150.0 mg/kg/injection, schedule: Q01DX001 (ip), vehicle: saline 93 % of control
